{"source": "patent US20250285714A1", "about": "“A PHARMACEUTICAL PLATFORM TECHNOLOGY FOR DRUG DISCOVERY AND CONSUMER HEALTH PRODUCT DEVELOPMENT” (SINOVEDA CANADA INC., priority 2021, published 2025)", "assay_type_in_all_cases": "cell-based, human", "key": {"HepG2 cells [1]": {"system": "HepG2 cells", "assay": "rtPCR TaqMan array of cancer pathway genes in treated HepG2 cells", "settings": "6 h; CBD 17, CBC 23, CBN 20, 1:1:1 17, sorafenib 12 μg/ml", "protocol": "rt-PCR: Target cancer gene pathways will be analyzed using a custom Taqman array card exploring 91 unique genes involved with a few cancer pathways.\nTwo million HepG2 cells in IMDM media with 20% FBS, and 1% ethanol were seeded in T75 flasks and incubated at 37° C., 7.5% CO2 until 70-80% confluent (approx. […]). The media were replenished with media containing individual cannabinoids (CBD 17 μg/ml, CBC 23 μg/ml, CBN 20 μg/ml) and cannabinoid mixture of CBD:CBC:CBN of 1:1:1 (17 μg/ml) and incubated for 6 hours prior to harvest. […] Untreated cells were included as a negative control Glyceraldehyde-3-phosphate dehydrogenase (GAPDH) was included as an endogenous control and used for normalization of the data.\nRNA was extracted using Invitrogen's Dynabead mRNA DIRECT kit using the recommended protocol to provide 50 μL of a purified mRNA solution. […] of RT master mix was mixed into the mRNA solution and the mixture left to react at 37° C. for 60 minutes. Reverse transcriptase inactivation was performed at 95° C. for 5 minutes and the resulting cDNA samples were kept at 4° C. until use. Fifty-five microliters of TaqMan Fast Advance master mix were added to an equal amount of cDNA sample containing 1 μg/100 μl of cDNA, which was loaded into each card reservoir. The cards were centrifuged twice at 1200 RPM for 3 minutes in a Legend XFR centrifuge and the rtPCR reaction was conducted in a QuantStudio7 PCR instrument using the standard settings with 40 amplification cycles.\nAssessment of cancer gene pathways were carried out using custom designed TaqMan array cards exploring 86 genes linked to numerous cancer related pathways. […] In addition to individual pathways, genes linked to specific cellular processes were also explored."}, "HepG2 cells [2]": {"system": "HepG2 cells", "assay": "In-cell Western-blot protein expression in treated HepG2 cells", "settings": "six hour treatment; CBD 17, CBC 23, CBN 20, Sorafenib 12, SCI-111 17, SCI-521 17 μg/ml", "protocol": "In-cell Western-blot analysis: Protein expression was assessed by seeding 1000 HepG2 cells/well from cyro frozen stocks into 384 well optical bottom black culture plates from Thermo-Scientific (item 142761) in IMDM media with 20% FBS and 1% ethanol. […] After a six hour treatment, the cells were fixated with 4% formaldehyde for 15 minutes, permeated with 0.1% triton-x100 for 10 minutes, and left in blocking buffer (phosphate buffered saline (PBS) with 3% bovine serum albumin (BSA)) overnight at 4 degrees Celsius. The following day, the cells were rinsed with PBS, incubated with 25 μl PBS containing primary antibody (Table 1) for 3 hours at 25° C. Subsequently, the primary antibody was removed, cells were rinsed twice with PBS, and incubated with 25 μl of PBS containing the secondary antibody (Rabbit: Alexa Fluor 790 donkey anti-rabbit IgG (H+L) Lot 2409042; Mouse: Alexa Fluor 790 donkey anti-mouse IgG (H+L) Lot 2300923) at a concentration of 1:2000. Draq5 (1:2000) was added for normalization of data. After an hour incubation in the secondary antibody, the cells were rinsed with PBS and readings at 700 and 800 nm were acquired on a Licor Odyssey fluorescence imager with a resolution of 21 μm. Analysis was subsequently performed with Empiria Studio 2.1. A total of 5 samples were collected per antibody and the sample size was reduced to 3 for the statistical analysis."}, "HepG2 cells [3]": {"system": "HepG2 cells", "assay": "HepG2 cell proliferation XTT assay", "settings": "HepG2 in-vitro cell model", "protocol": "Cell assays: HepG2 cells were obtained from the American Type Culture Collection (ATCC). Cryopreserved cells in DMEM with 10% DMSO were thawed and diluted 10-fold in phenol red free DMEM media containing fetal 10% bovine serum, 100 μg/ml penicillin/streptomycin, supplemented with Glutamax™ and sodium pyruvate. Subsequently, cells were centrifuged at 20 g for 10 minutes. The cells were resuspended in the same media to a concentration of 2×10^5 cells/ml. Ninety-six well cell culture treated flat bottom plates were seeded with 7.5×10^3 HepG2 cells and incubated at 37° C., 5% CO2, >95% relative humidity for 18 hours to allow cellular adhesion after which media was replaced with like media containing 1-20% FBS and various test compounds (50 μg/ml to 50 ng/ml). […] Formazan production was measured 450 nm Varioskan lux at on a spectrophotometer. Non-specific absorption was measured at 660 nm and subtracted from the reference measurement at 450 nm. […]\nTernary cannabinoid assays: For tertiary cannabinoid compound mixtures, ratio mixtures of CBD:CBC:CBN were randomly chosen between 9:3:1 to 1:1:1 and CBN:CBC:CBD between 3:2:1 to 1:1:1 in IMDM media supplemented with 20% FBS and 1% ethanol and CBD:CBC:CBN ratios between 9:3:1 to 1:1:1 in DMEM media supplemented with 1% FBS. Cannabinoids were mixed and diluted in the media ready for serial dilution. […]"}}, "data": [{"compound": "C=C(C)[C@@H]1CCC(C)=C[C@H]1c1c(O)cc(CCCCC)cc1O", "note": "[CBD, Cannabidiol, reference compound]", "values": [{"measurement": "rtPCR Log2 fold change relative to untreated cells, BAD (Apoptosis)", "setting": "HepG2 cells [1]", "value": "−1.49", "unit": "Log2 fold change"}, {"measurement": "rtPCR Log2 fold change relative to untreated cells, BAX (Apoptosis)", "setting": "HepG2 cells [1]", "value": "−1.103", "unit": "Log2 fold change"}, {"measurement": "rtPCR Log2 fold change relative to untreated cells, BCL2 (Apoptosis)", "setting": "HepG2 cells [1]", "value": 4.139, "unit": "Log2 fold change"}, {"measurement": "rtPCR Log2 fold change relative to untreated cells, BCL2L1 (Apoptosis)", "setting": "HepG2 cells [1]", "value": "−1.414", "unit": "Log2 fold change"}, {"measurement": "rtPCR Log2 fold change relative to untreated cells, CAMK1 (Ca signaling)", "setting": "HepG2 cells [1]", "value": "−1.329", "unit": "Log2 fold change"}, {"measurement": "rtPCR Log2 fold change relative to untreated cells, CASP3 (Apoptosis)", "setting": "HepG2 cells [1]", "value": "−1.165", "unit": "Log2 fold change"}, {"measurement": "rtPCR Log2 fold change relative to untreated cells, CCND1 (Cell Cycle Arrest)", "setting": "HepG2 cells [1]", "value": "−1.396", "unit": "Log2 fold change"}, {"measurement": "rtPCR Log2 fold change relative to untreated cells, CCND2 (Cell Cycle Arrest)", "setting": "HepG2 cells [1]", "value": "−1.032", "unit": "Log2 fold change"}, {"measurement": "rtPCR Log2 fold change relative to untreated cells, CDK1 (Cell Cycle Arrest)", "setting": "HepG2 cells [1]", "value": "−1.257", "unit": "Log2 fold change"}, {"measurement": "rtPCR Log2 fold change relative to untreated cells, CDK4 (Cell Cycle Arrest)", "setting": "HepG2 cells [1]", "value": "−1.517", "unit": "Log2 fold change"}, {"measurement": "rtPCR Log2 fold change relative to untreated cells, CDK6 (Cell Cycle Arrest)", "setting": "HepG2 cells [1]", "value": "−1.224", "unit": "Log2 fold change"}, {"measurement": "rtPCR Log2 fold change relative to untreated cells, CTNNB1 (Cellular Adhesion)", "setting": "HepG2 cells [1]", "value": "−1.164", "unit": "Log2 fold change"}, {"measurement": "rtPCR Log2 fold change relative to untreated cells, GSK3B (Cellular Adhesion)", "setting": "HepG2 cells [1]", "value": "−1.409", "unit": "Log2 fold change"}, {"measurement": "rtPCR Log2 fold change relative to untreated cells, MAP1LC3A (MAP kinase)", "setting": "HepG2 cells [1]", "value": "−1.527", "unit": "Log2 fold change"}, {"measurement": "rtPCR Log2 fold change relative to untreated cells, MAP3K (MAP kinase)", "setting": "HepG2 cells [1]", "value": "−1.213", "unit": "Log2 fold change"}, {"measurement": "rtPCR Log2 fold change relative to untreated cells, MAPK8 (MAP kinase)", "setting": "HepG2 cells [1]", "value": "−2.27", "unit": "Log2 fold change"}, {"measurement": "rtPCR Log2 fold change relative to untreated cells, MITF (Drug Resistance)", "setting": "HepG2 cells [1]", "value": "−4.196", "unit": "Log2 fold change"}, {"measurement": "rtPCR Log2 fold change relative to untreated cells, MNT (Cell Cycle Arrest)", "setting": "HepG2 cells [1]", "value": "−1.533", "unit": "Log2 fold change"}, {"measurement": "rtPCR Log2 fold change relative to untreated cells, MTOR (PI3K/AKT/MTOR)", "setting": "HepG2 cells [1]", "value": "−1.055", "unit": "Log2 fold change"}, {"measurement": "rtPCR Log2 fold change relative to untreated cells, PAK3 (MAP kinase)", "setting": "HepG2 cells [1]", "value": "−1.926", "unit": "Log2 fold change"}, {"measurement": "rtPCR Log2 fold change relative to untreated cells, PIK3C2A (PI3K/AKT/MTOR)", "setting": "HepG2 cells [1]", "value": "−1.161", "unit": "Log2 fold change"}, {"measurement": "rtPCR Log2 fold change relative to untreated cells, PPARG (Receptors)", "setting": "HepG2 cells [1]", "value": "−1.826", "unit": "Log2 fold change"}, {"measurement": "rtPCR Log2 fold change relative to untreated cells, RAC1 (MAP kinase)", "setting": "HepG2 cells [1]", "value": "−1.274", "unit": "Log2 fold change"}, {"measurement": "rtPCR Log2 fold change relative to untreated cells, RASA1 (MAP kinase)", "setting": "HepG2 cells [1]", "value": "−1.356", "unit": "Log2 fold change"}, {"measurement": "rtPCR Log2 fold change relative to untreated cells, ROCK1 (Cellular Adhesion)", "setting": "HepG2 cells [1]", "value": "−1.013", "unit": "Log2 fold change"}, {"measurement": "rtPCR Log2 fold change relative to untreated cells, SMAD2 (TGF signaling)", "setting": "HepG2 cells [1]", "value": "−1.437", "unit": "Log2 fold change"}, {"measurement": "rtPCR Log2 fold change relative to untreated cells, TAZ (HIPPO)", "setting": "HepG2 cells [1]", "value": "−1.766", "unit": "Log2 fold change"}, {"measurement": "rtPCR Log2 fold change relative to untreated cells, gene name not printed (Apoptosis, row r54)", "setting": "HepG2 cells [1]", "value": "−1.09", "unit": "Log2 fold change"}, {"measurement": "rtPCR Log2 fold change relative to untreated cells, gene name not printed (Cell Cycle Arrest, row r42)", "setting": "HepG2 cells [1]", "value": "−1.332", "unit": "Log2 fold change"}, {"measurement": "rtPCR Log2 fold change relative to untreated cells, gene name not printed (Cellular Adhesion, row r57)", "setting": "HepG2 cells [1]", "value": "−1.436", "unit": "Log2 fold change"}, {"measurement": "rtPCR Log2 fold change relative to untreated cells, gene name not printed (PI3K/AKT/MTOR, row r20)", "setting": "HepG2 cells [1]", "value": "−1.565", "unit": "Log2 fold change"}, {"measurement": "rtPCR Log2 fold change relative to untreated cells, gene name not printed (PI3K/AKT/MTOR, row r22)", "setting": "HepG2 cells [1]", "value": "−1.174", "unit": "Log2 fold change"}, {"measurement": "rtPCR Log2 fold change relative to untreated cells, gene name not printed (Receptors, row r7)", "setting": "HepG2 cells [1]", "value": "−6.09", "unit": "Log2 fold change"}, {"measurement": "Protein fold change, DVLD (Cellular Adhesion)", "setting": "HepG2 cells [2]", "value": 1.67, "unit": "Fold change"}, {"measurement": "Protein fold change, HER2 (Receptor)", "setting": "HepG2 cells [2]", "value": 1.34, "unit": "Fold change"}, {"measurement": "Protein fold change, MEK PO4 (MAP kinase/PI3K)", "setting": "HepG2 cells [2]", "value": 1.40, "unit": "Fold change"}, {"measurement": "Protein fold change, MET PO4 (Receptor)", "setting": "HepG2 cells [2]", "value": 1.52, "unit": "Fold change"}, {"measurement": "Protein fold change, PI3K (MAP kinase/PI3K)", "setting": "HepG2 cells [2]", "value": 2.05, "unit": "Fold change"}, {"measurement": "Protein fold change, PTEN (MAP kinase/PI3K)", "setting": "HepG2 cells [2]", "value": 0.80, "unit": "Fold change"}, {"measurement": "Protein fold change, TEAD2 (HIPPO signaling)", "setting": "HepG2 cells [2]", "value": 1.46, "unit": "Fold change"}, {"measurement": "Protein fold change, VEGA (Angiogenesis)", "setting": "HepG2 cells [2]", "value": 1.33, "unit": "Fold change"}, {"measurement": "Protein fold change, c-MYC (Apoptosis)", "setting": "HepG2 cells [2]", "value": 1.55, "unit": "Fold change"}, {"measurement": "Protein fold change, p53 (Apoptosis)", "setting": "HepG2 cells [2]", "value": 1.28, "unit": "Fold change"}, {"measurement": "Potency/efficacy compared to sorafenib", "setting": "HepG2 cells [3]", "value": "more potent"}]}]}
